This passage reports CE formation-accelerating effect results from patent publication US20030072816A1, “Agents improving skin barrier function” (priority 2000, published 2003).

In this experiment the test system is Human epidermal keratinocytes. As to the kind of experiment: Formation of CE in cultured keratinocytes (amount of CE by visual observation or count under a microscope). Format: cell-based. Also noted: key: −: No CE formation; ++: CE formation in an amount equal to that in positive control (growth medium) is observed; +++: Clearly more CE formation than in positive control (growth medium) is observed. Conditions: test substance 3% in MEM containing 0.1% bovine serum albumin, cultured 1 week. On the procedure: Human epidermal keratinocytes were cultured according to the method of Rheinwald & Green (Cell 6: 331-344, 1975). The cells were cultured in a growth medium (DMEM-Ham's F12 (3:1) containing 10% fetal bovine serum, 0.5 μg/ml hydrocortisone, 5 μg/ml insulin, 10^−10 M cholera toxin, 10 ng/ml epidermal growth factor and 1.8×10^−4 M adenine) up to confluent, the medium was replaced with a medium (MEM containing 0.1% bovine serum albumin) containing a test substance, and culturing was continued for further 1 week. After completion of the culturing, Tris-hydrochloric acid buffer containing dithiothreitol and sodium dodecyl sulfate was added, and the mixture was heated at 100° C. for 10 minutes. The insoluble substance was collected by centrifugation at 4,000 g for 10 minutes. The eluent addition and heating were repeated and thereby soluble components were thoroughly removed. The thus obtained insoluble substance was referred to as CE. The amount of the obtained CE was evaluated by visual observation. Otherwise, the number was counted under a microscope using a cytometer.

In the case of `CC(C)CCCC(C)CCCC(C)CCCCC(C)CCCC(C)CCCC(C)C` (stereo not shown) [Squalane], the CE formation-accelerating effect entry is given as “−”.
